Each block holds one molecule with its values, some of them ahead of it.
Tests used:
neoplastic sputum cells = experiment: TCPP fluorescence in PAP-stained neoplastic sputum cells; format: cell-based, human; conditions: after PAP staining
Excerpt: To assist in the identification of the neoplastic cells, sputum samples which had the greatest TCPP uptake were stained with PAP stain, a stain routinely used by cytologists to identify neoplastic cells. Cells identified as neoplastic using the PAP stain were marked and re-examined for TCPP uptake with a fluorescent microscope.

[1] = test system: neoplastic sputum cells (squamous cell lung carcinoma, oat cell lung carcinoma, lung adenocarcinoma, advanced metastatic lymphoma); experiment: Fluorescence of sputum samples from lung cancer patients versus noncancerous patients; format: cell-based, human
Description: Studies were conducted using patients having confirmed squamous cell lung carcinoma, oat cell lung carcinoma, lung adenocarcinoma, and advanced metastatic lymphoma (lung metastasis) using procedures identical to those set forth above.

[2] = test system: cancers of the lung grown in tissue cultures; experiment: TCPP localization in lung cancers grown in tissue culture; format: cell-based
squamous carcinoma cells = experiment: TCPP uptake in squamous carcinoma cells, flow cytometry; format: cell-based; conditions: squamous carcinoma cells grown in culture
[3] = test system: human small cell (oat cell) lung carcinoma; experiment: TCPP uptake in small cell lung carcinoma cells; format: cell-based
malignant sputum cells = experiment: Porphyrin uptake in sputum cells evaluated with a fluorescent microscope; format: cell-based, human
Excerpt: Five parameters were investigated for this study: (1) the effect of various sputum processing procedures on the uptake of porphyrin in sputum cells, (2) the comparison of TCPP to three other porphyrins that are known for their uptake by tumors, (3) the time required for optimal uptake of the porphyrin in sputum cells, (4) the uptake of porphyrin in test and control sputum samples, and (5) the verification that TCPP was localizing in malignant sputum cells. In each of these investigations, the uptake of porphyrin in sputum cells was evaluated with a fluorescent microscope. Nonmetallated porphyrin fluoresces at approximately 650 nm. Sputum samples were evaluated for (1) the number of cells in the sputum samples which fluoresced, and (2) the intensity of the porphyrin fluorescence.
Sputum samples require processing in order to produce a single cell suspension of lung cells. Sputum samples from test and control patients were collected and processed with alcohol and carbowax, alcohol only, phosphate-buffered saline (PBS), or left unprocessed. All samples were mixed with a blender for 1 minute following the addition of the processing mixture and then placed into petri dishes containing various porphyrins. […] Cells in the unprocessed sputum samples remained attached to the bottom of the petri dish with only a few cells free of the mucous.
Four porphyrins selected for their known affinity for neoplastic cells were tested for their ability to detect malignant sputum cells. Sputum cells obtained from each of the four processing procedures set forth above were treated with one of hematoporphyrin derivative, HPD, 5,10,15,20-tetrakis(4-carboxyphenyl)porphine, TCPP, 5,10,15,20-tetrakis(4-sulfonatophenyl)porphine, TTPS, or uroporphyrin, URO. In all investigations, the porphyrins were dissolved in tissue culture medium at a concentration of 200 μg/ml. Following the addition of porphyrin, each sample was incubated at 37° C. for a specific length of time.
Following the incubation period, each sputum sample was examined for porphyrin uptake with a fluorescent microscope. The background fluorescence from porphyrin uptake by nonmalignant cells was lower in some measurements.
Each sputum sample was incubated at 37° C. with each of the porphyrins for either 6 or 24 hours and then evaluated for porphyrin uptake with a fluorescent microscope. At the 6 hour incubation period, the cells had begun to localize porphyrin; however, when the sputum cells were washed with PBS, the fluorescence diminished considerably. […] By 24 hours, by contrast, the uptale of porphyrin by sputum cells increased considerably. […] When the sputum cells that had been incubated for 24 hours were washed with PBS, the porphyrin remained attached to the cells. Longer incubation times were not investigated.
When porphyrin uptake in the test and control samples were compared (i.e., the number of sputum cells which fluoresced), the porphyrin uptake in the control samples was considerably lower than the uptake in the test samples. In addition, the fluorescence intensity of the few control cells that did floresce was lower than the fluorescence intensity of the test cells.

[4] = test system: normal human lung epithelial cells; experiment: TCPP uptake in normal lung epithelial cells; format: cell-based
[5] = Serum stability: loss of copper measured by fluorescence under simulated physiological conditions; format: in vitro ADME, human
Excerpt: An important consideration in the development of a radiopharmaceutical is the stability of the complex ^67 Cu TCPP to the loss of the radioisotope ^67 Cu in vivo.

[6] = Biological half-life study; format: in vivo; conditions: rats, intravenous; exponential decay
Excerpt: (§1) A sterile dose of ^67 CuTCPP (1.0×10^-6 gm) was intravenously injected into the tail vein of rats.

[7] = Biodistribution in rats after intravenous injection; format: in vivo; conditions: normal rats (no cancer), 1.0×10^-6 gm
Excerpt: as §1

[8] = 200 μg/ml, 37° C., four porphyrins compared

Molecule: O=C(O)c1ccc(-c2c3nc(c(-c4ccc(C(=O)O)cc4)c4ccc([nH]4)c(-c4ccc(C(=O)O)cc4)c4nc(c(-c5ccc(C(=O)O)cc5)c5ccc2[nH]5)C=C4)C=C3)cc1 [TCPP, 5,10,15,20-tetrakis(4-carboxyphenyl)porphine]
TCPP fluorescence in neoplastic cells identified by PAP stain (neoplastic sputum cells): seen in every neoplastic cell
uptake of porphyrin in neoplastic sputum cells ([1]; carbowax and ethanol): greatest uptake of porphyrin in neoplastic sputum cells
number of fluorescent cells times fluorescence intensity, cancer patients vs noncancerous patients ([1]; sputum samples): 3-6 times
incubation time for TCPP localization ([2]; 24 hours in TCPP): more than adequate to maximize the TCPP localization
effect of fixing the cells prior to TCPP exposure on TCPP uptake ([2]; fixed prior to TCPP exposure): increased the TCPP uptake
effect of paraformaldehyde fixation on TCPP uptake ([2]; paraformaldehyde vs alcohol and carbowax): slightly increase the TCPP uptake
localization in cultured lung cancers ([2]; tissue culture): localizes in cancers of the lung grown in tissue cultures
detection by flow cytometry (squamous carcinoma cells): can easily be detected using flow cytometry
TCPP uptake compared with normal cells ([3]; vs normal cells): considerably higher than uptake in normal cells
TCPP absorption lower than in squamous cell line ([3]; vs squamous cell line): 2-3 times lower
contrast (brightness) between fluorescing malignant cells and background fluorescence (malignant sputum cells; [8]): greatest contrast (brightness)
number of cells fluorescing (malignant sputum cells; [8]): greatest number of cells fluorescing
porphyrin uptake (malignant sputum cells; [8]): significant porphyrin uptake in the malignant bodies
TCPP uptake by sputum processing procedure (malignant sputum cells; alcohol or alcohol/carbowax processing vs PBS or unprocessed): highest TCPP uptake
difference between the uptake of porphyrin by test and control sputum cells (malignant sputum cells; four porphyrins compared): most dramatic difference
TCPP concentration relative to autofluorescence or background ([4]; normal human lung epithelial cells): only slightly above autofluorescence or background levels
TCPP concentration relative to neoplastic cell lines ([4]; vs neoplastic cell lines examined): many times lower concentration

Molecule: uroporphyrin [reference compound]
porphyrin uptake (malignant sputum cells; [8]): least porphyrin uptake

conversion (loss of copper) ([5]; human serum albumin, EDTA and DTPA, up to 12 days, one percent is the limit of detection): less than one
biological half-life [6]: 108 hours
major organs of localization ([7]; tail vein): liver and kidney
Molecule: O=C([O-])c1ccc(C2=C3C=CC(=N3)C(c3ccc(C(=O)[O-])cc3)=C3C=CC(=N3)C(=c3ccc(=C([O-])[O-])cc3)c3ccc([n-]3)C(c3ccc(C(=O)[O-])cc3)=C3C=CC2=N3)cc1.[67Cu+2].[H+].[H+].[H+].[H+] [^67 CuTCPP]
transcomplexation with other metal ions ([5]; ultraviolet-visible spectroscopy): no detectable transcomplexation with other metal ions
uptake by normal lung tissue [7]: does not appear to take up significant quantities

Reference: patent US5162231A, “Method of using 5,10,15,20-tetrakis(carboxyphenyl)porphine for detecting cancers of the lung” (priority 1990, dated 1992)
